From US11420960B2, “Use of 5-oxazolidine-2,4-dione C-glycoside derivatives as moisturizer for the skin” (L'OREAL, priority 2018, dated 2022)

System: isolated stratum corneum (SC)
Test: Evaluation of the moisturizing potential on isolated stratum corneum by measurement with a Corneometer
Settings: for Mean DHCMiactive agent corr: 5% by weight in water/n-propanol (80/20), 5 μl/cm2 on SC, T4h vs T0h, 75% relative humidity, 25° C., relative percentage with carrier control 0% and glycerol 100%; for dielectric capacitance of the stratum corneum (SC): compounds at 5% by weight
Description: B): Evaluation of the Moisturizing Potential on Isolated Stratum Corneum by Measurement with a Corneometer
A test was performed to evaluate the moisturizing potential of the compounds of the invention formulated in an aqueous solution to an amount of 5% by weight relative to the total weight of the composition.
The technique makes it possible to measure the dielectric capacitance of the stratum corneum (SC), which depends on the mean dielectric permittivity value of the tissue. The dielectric permittivity varies greatly with the amount of water contained in the SC.
The SC samples are conditioned at 75% relative humidity and at 25° C. before/during the measurements and the treatment. The capacitance measurement is performed using a Corneometer™ (Courage & Khazaka, Germany).
The compound tested, compounds 1, 2 and 3 according to the invention or a moisturizing active agent such as glycerol (humectant positive control), is dissolved in a water/n-propanol mixture (80/20) and the solution is deposited onto the SC at a rate of 5 μl/cm^2 followed by air-drying for a total duration of 4 h.
A measurement is taken at T0h, before the treatment, and a measurement T4h is taken after total drying of the treatment.
The variation in the level of moisturization between T0h and T4h is calculated for each condition tested and compared to the references (carrier control and positive control) and to its T0h. The experiments are carried out on at least two different batches of SC and three samples of SC per condition tested.
The variation in the corneometer signal (HCM) after treatment is calculated for each SC sample: DHCMi=HCMi(T4h)−HCMi(T0h).
The results are then expressed as relative percentage in relation to the references, the carrier control and the glycerol positive control corresponding to a level of 0% and 100%, respectively.
Thus, for each experiment, the following are measured: • For the carrier control: DHCMicarrier=HCMicarrier(T4h)−HCMicarrier(T0h) • For the positive control: DHCMiglycerol=HCMiglycerol(T4h)−HCMiglycerol(T0h) • For the active agent: DHCMiactive agent=HCMiactive agent(T4h)−HCMiactive agent(T0h) • % DHCMiactive agent=(DHCMiactive agent−DHCMicarrier)/((DHCMiglycerol−DHCMicarrier) • As specified above, according to this mode of calculation: • % DHCMicarrier=0% • % DHCMiglycerol=100%
The moisturizing potential of an active agent is therefore determined as relative percentage in relation to the positive control.

Compound | Mean DHCMiactive agent corr [%] | dielectric capacitance of the stratum corneum (SC) in comparison with glycerol at the same concentration (in words, 5% by weight) | dielectric capacitance of the stratum corneum (SC) (in words)
O=C1N=C(O)C(C2O[C@H](CO)[C@@H](O)[C@H](O)[C@H]2O)O1 (some centres unmarked) [Compound 1] | 88 | of the same order | high
O=C1N=C(O)C(C2OC[C@@H](O)[C@H](O)[C@H]2O)O1 (some centres unmarked) [Compound 2] | 63 | – | high
CN1C(=O)OC(C2O[C@H](CO)[C@@H](O)[C@H](O)[C@H]2O)C1=O (some centres unmarked) [Compound 3] | 51 | – | high
OCC(O)CO [Glycerol, glycerol, reference compound] | 100 | – | –
